# EPA's ToxValDB 9.5 (doi:10.2903/j.efsa.2008.151r)
# Key:
# Typhlodromus pyri = assay: LR50; higher = less toxic; conditions: not reported; mortality
# Lepomis macrochirus = conditions: chronic/long-term; duration: 28 days; body weight
# Tagia sp. = conditions: acute; duration: 14 days; mortality
# Daphnia magna = conditions: chronic/long-term; duration: 21 days; reproduction
# Oryctolagus sp. = conditions: developmental; development
# Canidae = conditions: subchronic; duration: 90 days; oral; Dog Other; body weight
# [1] = reproduction developmental, reproduction
smiles,measurement,setting,value
CC(C)C(O)(c1ccc(OC(F)(F)F)cc1)c1cncnc1 (configuration not stated) [Flurprimidol],LR50,Typhlodromus pyri,> 29.6 g/ha
same,NOEC,Lepomis macrochirus,0.42 mg/L
same,NOEC,Tagia sp.,62.6 mg/kg
same,LOAEL,"Rattus norvegicus; chronic, duration: 2 years, organ weight",1 mg/kg-day
same,NOAEL,"Rattus norvegicus; developmental, development",10 mg/kg-day
same,NOAEL,Rattus norvegicus; [1],1.8 mg/kg-day
same,NOEL,Rattus norvegicus; [1],1.8 mg/kg-day
same,NOEL,"Rattus norvegicus; short-term, oral, diet, body weight",1.62 mg/kg-day
same,NOAEL,"Rattus norvegicus; subchronic, duration: 90 days, oral, F, organ weight",1.96 mg/kg-day
same,NOEC,Daphnia magna,1.7 mg/L
same,NOAEL,Oryctolagus sp.,9 mg/kg-day
same,NOAEL,Canidae,1.5 mg/kg-day
